Measurements published in paper PMC11451635, “A Broad Spectrum Lasso Peptide Antibiotic Targeting the Bacterial Ribosome” (Research Square, 2024).
Converted amounts (≈) assume the structure as drawn. “Also recorded” adds a separate entry of the source. Where a SMILES comes first, the peptide text is derived from it. Bridges are numbered along the chain shown (N, C = ends).

What was measured:
[1] = tested on: E. coli strain CA244 lacZ C1456T; test: Miscoding assay (lacZ premature stop codon readthrough); conditions: MOPS agar, X-gal 80 μg/ml, IPTG 250 μM; 60.7 μg LAR spotted, ~18 h, 37°C
[2] = tested on: E. coli cell-free transcription-translation system (gfp mRNA); test: In vitro translation, GFP mRNA
E. coli = test: MIC under anaerobic conditions; assay type: cell-based, Escherichia coli; conditions: anaerobic vs aerobic
Procedure: (§1) MICs were determined using broth microdilution method in cation-adjusted Mueller-Hinton Broth (MHBII, BD Difco) following standard procedures unless stated otherwise. Mycobacteria susceptibility was tested in Middlebrook 7H9 medium supplemented with 10% OADC Enrichment (oleic acid, bovine albumin, dextrose, and catalase) (BD Difco). The compounds (2 to 4 μl) were mixed with diluted cultures (5–7 × 10^5 cfu/mL) in MHB (196 to 198 μL) in 96-well round-bottom plates, and 2-fold serial dilutions were made. Plates were incubated at 37°C for 18–22 h, and OD600 readings were taken on Synergy Microplate Reader (Biotek). MIC was determined to be the lowest concentration of antibiotics with no visible growth. For Mycobacterial cultures, the plates were read after two to three days. Susceptibility was also assessed in MOPS minimal medium with 0.4% glucose (M2106 Teknova) and RPMI-1640 medium. Serum effects were tested in MHB with 10% or 50% fetal bovine serum (Invitrogen) or human serum (Heat Inactivated, from human male AB plasma; Sigma-Aldrich). For anaerobic conditions, E. coli was incubated in BD GasPak™ EZ pouch systems. To adjust the pH of the media, 1M NaOH or 1N HCl was used.

[3] = tested on: strains with deletions of the individual identified genes; test: MIC in deletion strains of identified ETC/respiration genes; assay type: cell-based; conditions: deletions of genes related to ETC and respiration
Procedure: as §1

[4] = tested on: E. coli BW25113 ΔtolCΔbamB expressing various resistance genes; test: Cross-resistance with resistance mechanisms; conditions: mutations or enzymatic resistance mechanisms; Extended Data Fig. 10
[5] = tested on: Candida albicans ATCC 90028
[6] = tested on: common anaerobe components of the human microbiome; test: Activity against human gut microbiome bacteria; assay type: cell-based; conditions: BHI, anaerobic, 37 °C
Procedure: For MIC testing using human microbiota strains, the cultures were grown in BHI supplemented with L-cysteine (0.5g/L), Hemin (10mg/L), and Vitamin K (1mg/L) in anaerobic chambers (37 °C, 5% H2, 10% CO2, 85% N2). Candida albicans was cultivated in yeast nitrogen base (YNB) medium without amino acids (BD Difco).

A. baumannii C0286 = test: Neutropenic mouse thigh-infection model
human erythrocytes = test: Haemolysis
E. coli SQ110DTC = test: Selection of spontaneous rRNA resistant mutants
E. coli BW25113 membrane [7] = test: Propidium iodide uptake assay; assay type: cell-based, Escherichia coli; conditions: propidium iodide 4 μM, 30 min, RT, fluorescence
Procedure: E. coli BW25113 cells were prepared as described above and mixed with propidium iodide (final concentration 4 μM). Cell suspension (190 μL) was then placed into wells of a 96-well black-wall plate and supplemented with 10 μL of compounds at various concentrations. Fluorescence (lex/lem: 535/617 nm) was monitored for 30 min at RT in a Synergy Microplate Reader (Biotek). Colistin was used as a positive control.

E. coli ribosome = test: Translocation inhibition assay; assay type: biochemical, Escherichia coli; conditions: 62.5 μM LAR or 250 μM negamycin, EF-G/GTP, primer extension
B. subtilis 168 = test: Selection of spontaneous resistant mutants; assay type: cell-based, Bacillus subtilis; conditions: ~10^9 cfu on Mueller-Hinton agar, 37°C, 24–48 h
[8] = tested on: strains with odilorhabdin-resistance mutations; test: MIC in odilorhabdin-resistance mutants; assay type: cell-based; conditions: three of 10 known odilorhabdin-resistance mutations
Procedure: as §1

[9] = tested on: Bacteroides fragilis GC73; test: MIC, gut bacteria; assay type: cell-based; conditions: column MHB; method: BHI + L-cysteine, hemin, vitamin K, anaerobic, 37 °C
Procedure: as §1
(§2) For MIC testing using human microbiota strains, the cultures were grown in BHI supplemented with L-cysteine (0.5g/L), Hemin (10mg/L), and Vitamin K (1mg/L) in anaerobic chambers (37 °C, 5% H2, 10% CO2, 85% N2). […]

[10] = tested on: Lactobacillus plantarum GC4; test: MIC, gut bacteria; assay type: cell-based; conditions: column MHB; method: BHI + L-cysteine, hemin, vitamin K, anaerobic, 37 °C
Procedure: as §1, §2

E. coli BW25113 membrane [11] = test: Membrane depolarization assay; assay type: cell-based, Escherichia coli; conditions: DiOC2(3) 30 μM, 60 min, room temperature, fluorescence
Procedure: Mid-exponential phase E. coli BW25113 culture (OD600 0.3–0.5) was mixed with […] (DiOC2(3), ThermoFisher Scienti c) dye at a nal concentration of 30 μM and 190 μL of cells were placed into wells of a 96-well black plate. A volume of 10 μl of test compounds or DMSO was added, mixed by pipetting, and fluorescence was measured for 60 min at room temperature using a Synergy Microplate Reader (Biotek) (lex/lem: 450/670 nm). Carbonyl cyanide m-chlorophenyl hydrazone (CCCP) served as a positive control.

[12] = tested on: T. thermophilus 70S ribosome; test: X-ray structure of ribosome complex; assay type: binding, Thermus thermophilus
Bacillus subtilis 168 = assay type: cell-based

## CC(C)[C@H](NC(=O)CNC(=O)[C@H](CCCNC(=N)N)NC(=O)CNC(=O)[C@H](Cc1ccccc1)NC(=O)[C@H](CCCCN)NC(=O)CNC(=O)[C@@H]1CC(=O)N[C@@H](CO)C(=O)N[C@@H](CCCCN)C(=O)N[C@@H](CCCCN)C(=O)N[C@@H](CO)C(=O)N[C@@H](CCCCN)C(=O)N2CCC[C@H]2C(=O)NCC(=O)N1)C(=O)N[C@@H](CCCCN)C(=O)N[C@@H](CCCNC(=N)N)C(=O)NCC(=O)O [LAR, lariocidin] (SKKSKPGDGKFGRGVKRG-OH; lactam N-8)
[1]
  Miscoding / premature stop codon readthrough: induces miscoding; also recorded: induces premature stop codon readthrough
[2]; E. coli in vitro transcription-translation system, DNA or RNA
  IC50 class in words, bacterial translation: submicromolar
[2]; read-out: IC50, protein synthesis, gfp mRNA, E. coli cell-free system, real-time sfGFP fluorescence, 1 h, mean of three experiments
  IC50: 240 nM
E. coli
  Increase in MIC under anaerobic conditions: 4-to-8 fold
[3]
  Change in MIC in deletion strains: no significant changes in MIC
[4]
  Sensitivity to resistance mechanisms: unaffected by common resistance mechanisms; also recorded: mostly insensitive to mutations or enzymatic resistance mechanisms
[5]
  Antifungal action: no antifungal action
[5]; column MHB, method: yeast nitrogen base (YNB) without amino acids
  MIC: >256 µg/mL
[6]
  Activity vs gut microbiome anaerobes: no activity
A. baumannii C0286; 50 mg kg^−1 i.p. at 1, 4, 8 and 20 h post-infection, 24 h, vs vehicle, n = 8 treated
  Reduction in bacterial burden, blood: 2 orders of magnitude
A. baumannii C0286; 50 mg kg^−1 i.p. at 1, 4, 8 and 20 h post-infection, 24 h, vs vehicle, n = 15 treated
  Reduction in bacterial burden, spleen: 2 orders of magnitude
A. baumannii C0286; 50 mg kg^−1 i.p. at 1, 4, 8 and 20 h post-infection, 24 h, vs vehicle, n = 30 treated
  Reduction in bacterial burden, thigh: 2 orders of magnitude
A. baumannii C0286; mouse model of A. baumannii infection
  In vivo activity: potent in vivo activity
A. baumannii C0286; over 48 h post-infection, 50 mg kg^−1 i.p. x4
  Survival: 100%
A. baumannii C0286; vs control mice
  Appearance of treated mice: appeared much healthier than control mice
Human erythrocytes
  Hemolytic activity: did not display hemolytic activity
Human erythrocytes; 500 μg/ml, human erythrocytes in PBS pH 7.4, 1 h, 37°C, 540 nm, Triton X-100 = 100%
  Haemolysis: <1%
E. coli SQ110DTC; 16S rRNA resistance mutations, Extended Data Fig. 6a
  Effect of selected rRNA substitutions on MIC: modest effects
E. coli SQ110DTC; MHB/agar, 64 μg/mL LAR (~4xMIC), 48 h, 37°C
  Frequency of resistant clones: ~ 2×10^−8
E. coli BW25113 membrane [7]
  Membrane permeabilization: did not permeabilize
E. coli ribosome
  Inhibition of ribosome translocation: inhibits ribosome translocation; also recorded: this reaction was inhibited when LAR was present
B. subtilis 168
  Frequency of resistant mutants: ~ 10^−8
[8]
  Increase in LAR MIC by odilorhabdin-resistance mutations: 2–4 x
[9]
  MIC: >256 µg/mL
[10]
  MIC: >256 µg/mL
E. coli BW25113 membrane [11]
  Membrane depolarization: did not permeabilize or depolarize the bacterial membrane
[12]; 70S ribosome with mRNA and tRNAs, 250 μM antibiotic
  Ribosome binding (X-ray structure): binds to the small ribosomal subunit at a distinct site adjacent to the decoding center
[12]; Tth ribosome lacking mRNA and tRNAs (protein Y complex), 2.6 Å
  Ribosome binding without mRNA and tRNAs: the presence of A-site tRNA is not essential for LAR binding to the ribosome
Bacillus subtilis 168
  MIC (text): 1 µg/mL (≈ 0.534 µM)
